Measured values taken from patent publication US20240254119A1 (THIRD HARMONIC BIO, INC., priority 2022, published 2024).

Target: T1, MDR1 (Homo sapiens, UniProt P08183)
T1 construct: host or cells: MDCKII (canine kidney) cells
Experiment: Permeability in MDR1-MDCKII cells
Assay type: in vitro ADME
Conditions: dog, MDCK-MDR1, pH 7.4
Experimental: Exemplary compounds were tested for cell permeability in Caco-2, MDCKII-MDR1 and MDCKII-BCRP cell lines with efflux transporter engagement inferred from the efflux ratios determined. Procedures and results are described below. […] This feature of certain compounds is in part due to efflux transporter engagement. See, for instance, exemplary such compounds included in data tables below.
MDR1-MDCKII cells (obtained from Piet Borst at the Netherlands Cancer Institute) were seeded onto […] membranes (PET) in 96-well insert systems at 2.5×10^5 cells/mL until to 4-7 days for confluent cell monolayer formation.
Test compounds were diluted with the transport buffer (HBSS with 10 mM Hepes, pH7.4) from DMSO stock solution to a concentration of 2.00 μM (DMSO<1%) and applied to the apical or basolateral side of the cell monolayer. Permeation of the test compounds from A to B direction or B to A direction was determined in duplicate. Digoxin was tested at 10.0 μM from A to B direction or B to A direction as well, while nadolol and metoprolol were tested at […] in A to B direction in duplicate. The plate was incubated for 2.5 hours in CO2 incubator at 37±1° C., with 5% CO2 at saturated humidity without shaking. In addition, the efflux ratio of each compound was also determined. Test and reference compounds were quantified by LC-MS/MS analysis based on the peak area ratio of analyte/IS.
After transport assay, Lucifer yellow rejection assay are applied to determine the cell monolayer integrity. Buffers are removed from both apical and basolateral chambers, followed by the addition of 75 μL of 100 μM lucifer yellow in transport buffer and 250 μL transport buffer in apical and basolateral chambers, respectively. The plate is incubated for 30 minutes at 37° C. with 5% CO2 and saturated humidity without shaking. After 30 minutes incubation, 20 μL of lucifer yellow samples are taken from the apical sides, followed by the addition of 60 μL of Transport Buffer. And then 80 μL of lucifer yellow samples are taken from the basolateral sides. The relative fluorescence unit (RFU) of lucifer yellow is measured at 425/528 nm (excitation/emission) with an Envision plate reader.
The apparent permeability coefficient Papp (cm/s) was calculated using the equation: […]
Where dCr/dt is the cumulative concentration of compound in the receiver chamber as a function of time (μM/s); Vr is the solution volume in the receiver chamber (0.075 mL on the apical side, 0.25 mL on the basolateral side); A is the surface area for the transport, i.e. 0.0804 cm^2 for the area of the monolayer; C0 is the initial concentration in the donor chamber (μM). The efflux ratio was calculated using the equation: […]
Where Vd is the volume in the donor chambers (0.075 mL on the apical side, 0.25 mL on the basolateral side); Cd and Cr are the final concentrations of transport compound in donor and receiver chambers, respectively.

T1 sequence (P08183 whole entry): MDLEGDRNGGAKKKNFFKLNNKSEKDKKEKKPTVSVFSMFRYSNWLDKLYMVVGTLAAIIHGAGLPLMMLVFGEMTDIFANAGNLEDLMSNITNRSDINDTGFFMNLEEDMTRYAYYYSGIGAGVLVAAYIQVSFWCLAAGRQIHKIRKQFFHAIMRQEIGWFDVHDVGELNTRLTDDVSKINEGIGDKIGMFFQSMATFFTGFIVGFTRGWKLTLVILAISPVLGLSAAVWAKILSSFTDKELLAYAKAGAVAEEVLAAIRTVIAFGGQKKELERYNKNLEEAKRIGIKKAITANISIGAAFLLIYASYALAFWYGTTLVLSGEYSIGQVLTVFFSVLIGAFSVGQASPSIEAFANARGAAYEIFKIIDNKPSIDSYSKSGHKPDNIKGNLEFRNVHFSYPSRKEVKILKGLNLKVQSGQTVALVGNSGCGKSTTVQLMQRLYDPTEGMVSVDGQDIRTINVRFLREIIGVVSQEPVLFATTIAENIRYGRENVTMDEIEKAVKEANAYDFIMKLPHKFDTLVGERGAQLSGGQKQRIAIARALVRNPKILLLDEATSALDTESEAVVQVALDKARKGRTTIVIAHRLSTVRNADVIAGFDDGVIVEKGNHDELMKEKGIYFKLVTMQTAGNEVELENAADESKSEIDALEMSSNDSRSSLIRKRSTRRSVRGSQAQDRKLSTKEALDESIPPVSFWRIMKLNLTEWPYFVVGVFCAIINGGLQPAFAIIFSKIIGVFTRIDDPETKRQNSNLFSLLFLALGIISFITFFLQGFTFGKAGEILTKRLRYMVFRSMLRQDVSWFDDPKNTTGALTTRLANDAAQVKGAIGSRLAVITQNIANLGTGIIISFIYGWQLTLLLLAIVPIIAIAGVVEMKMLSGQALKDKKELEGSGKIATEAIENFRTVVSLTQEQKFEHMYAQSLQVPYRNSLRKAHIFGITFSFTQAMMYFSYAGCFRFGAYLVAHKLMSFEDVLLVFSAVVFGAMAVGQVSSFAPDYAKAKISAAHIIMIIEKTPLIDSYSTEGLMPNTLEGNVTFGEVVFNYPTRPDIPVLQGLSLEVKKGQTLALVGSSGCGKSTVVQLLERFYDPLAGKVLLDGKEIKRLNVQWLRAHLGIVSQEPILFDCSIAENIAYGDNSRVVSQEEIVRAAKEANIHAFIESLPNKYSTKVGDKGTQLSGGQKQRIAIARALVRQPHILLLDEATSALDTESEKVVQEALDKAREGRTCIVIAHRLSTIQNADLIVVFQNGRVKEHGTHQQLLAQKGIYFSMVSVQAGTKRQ

## Cc1ccc(-c2noc([C@H]3C[C@@H]3F)n2)cc1NC(=O)c1cnc2cc(COCC(C)(C)O)ccn12 [Compound I-71, N-[5-[5-[(1R,2S)-2-fluorocyclopropyl]-1,2,4-oxadiazol-3-yl]-2-methyl-phenyl]-7-[(2-hydroxy-2-methyl-propoxy)methyl]imidazo[1,2-a]pyridine-3-carboxamide]
MDCKII-MDR1
  efflux ratio at 2.5 h, 2 μM: 5.15
MDCKII-MDR1, apical to basolateral
  Papp A→B at 2.5 h, 2 μM: 5.94 ×10⁻⁶ cm/s
